Tests used:
Assay in all cases: relative viability (nuclei count vs DMSO), 5 days (fraction); higher = more cells survive
Lenalidomide = compound: Nc1cccc2c1CN(C1CCC(=O)NC1=O)C2=O [Lenalidomide]
Summary of the method: (§1)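 Five library-drug doses, separated by factors of √10, were pinned into 1536-well plates holding lung cancer cell lines after an overnight stay at 37 °C. Cells were fixed, permeabilised and Hoechst-stained in one step after 5 days without medium change, then imaged at 4×. Viability compares treated-well with vehicle-well nuclei, counted in MetaXpress, as a median across plates. Passing plates had control CV below 25% and at least one doubling.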

Luminespib = compound: CCNC(=O)c1noc(-c2cc(C(C)C)c(O)cc2O)c1-c1ccc(CN2CCOCC2)cc1 [Luminespib]
Summary of the method: as §1

Saracatinib = compound: CN1CCN(CCOc2cc(OC3CCOCC3)c3c(Nc4c(Cl)ccc5c4OCO5)ncnc3c2)CC1 [Saracatinib]
Summary of the method: as §1

Nilotinib = compound: Cc1cn(-c2cc(NC(=O)c3ccc(C)c(Nc4nccc(-c5cccnc5)n4)c3)cc(C(F)(F)F)c2)cn1 [Nilotinib]
Summary of the method: as §1

MIM1 = compound: CC1=CSC(=NC2CCCCC2)N1/N=C/C3=C(C(=C(C=C3)O)O)O [MIM1]
Summary of the method: as §1

Cell Line | relative viability (Lenalidomide; 0.253 µM) | relative viability (Lenalidomide; 0.8 µM) | relative viability (Lenalidomide; 2.53 µM) | relative viability (Lenalidomide; 8 µM) | relative viability (Luminespib; 0.002 µM) | relative viability (Luminespib; 0.006325 µM) | relative viability (Luminespib; 0.01 µM, anchor plate) | relative viability (Luminespib; 0.02 µM) | relative viability (Luminespib; 0.06325 µM) | relative viability (Luminespib; 0.2 µM) | relative viability (Saracatinib; 0.02 µM) | relative viability (Saracatinib; 0.2 µM) | relative viability (Saracatinib; 0.6325 µM) | relative viability (Saracatinib; 2 µM) | relative viability (Nilotinib; 0.001 µM) | relative viability (Nilotinib; 0.003162 µM) | relative viability (Nilotinib; 0.01 µM) | relative viability (Nilotinib; 0.03162 µM) | relative viability (Nilotinib; 0.1 µM) | relative viability (MIM1; 0.2 µM) | relative viability (MIM1; 0.6325 µM) | relative viability (MIM1; 2 µM) | relative viability (MIM1; 6.325 µM) | relative viability (MIM1; 20 µM)
NCI-H3122 | 0.999 | 1.04 | 1.01 | 1.06 | 1.05 | 0.958 | 0.0888 | 0.627 | 0.507 | 0.117 | 0.969 | 0.717 | 0.845 | 0.803 | 1.03 | 1.21 | 1.23 | 0.971 | 0.956 | 0.979 | 1.04 | 1.01 | 0.551 | 0.257
LXF-289 | 0.981 | 1.03 | 1.11 | 1.07 | 0.974 | 0.979 | 0.681 | 1.09 | 0.85 | 0.195 | 0.997 | 0.944 | 1.02 | 1.01 | 0.937 | 1.19 | 1.15 | 0.96 | 0.576 | 1.04 | 0.741 | 1.04 | 0.737 | 0.503
NCI-H1299 | 1.02 | 0.97 | 1.03 | 1.05 | 1.03 | 0.95 | – | 1.04 | 0.942 | 0.217 | 1.02 | 0.948 | 1.05 | 1 | 0.939 | 1.08 | 1.15 | 1.02 | 0.966 | 0.983 | 0.992 | 0.994 | 1.01 | 0.776
LOU-NH91 | 1 | 0.873 | 0.95 | 0.905 | 0.995 | 0.922 | 0.364 | 0.717 | 0.334 | 0.376 | 0.945 | 0.741 | 0.834 | 0.66 | 0.961 | 0.944 | 0.973 | 0.981 | 0.967 | 0.863 | 0.903 | 0.809 | 0.758 | 0.394
A549 | 0.986 | 0.97 | 1.13 | 0.954 | 1.04 | 0.923 | – | 0.432 | 0.085 | 0.0435 | 1.04 | 0.81 | 1.09 | 0.898 | 0.948 | 1.21 | 1.1 | 0.739 | 0.665 | 0.967 | 0.933 | 0.946 | 0.782 | 0.333
NCI-H1755 | 0.976 | 0.986 | 1.07 | 0.879 | 0.996 | 0.987 | 0.355 | 0.979 | 0.818 | 0.225 | 0.953 | 0.859 | 0.957 | 0.88 | 0.974 | 1.08 | 1.03 | 0.832 | 0.828 | 1 | 0.956 | 1.01 | 0.816 | 0.308

Source: the supplement of paper PMC10307832
